Measurements from US20230073777A1, “CYCLIC-AMP RESPONSE ELEMENT BINDING PROTEIN (CBP) AND/OR ADENOVIRAL E1A BINDING PROTEIN OF 300 KDA (P300) DEGRADATION COMPOUNDS AND METHODS OF USE” (CULLGEN (SHANGHAI), INC., priority 2019, published 2023).
Like-named read-outs stand apart in the source and are kept apart here.

Experiments:
LNCaP cells = test: LNCaP cell viability assay (CellTiter-Glo); type: cell-based; details: Homo sapiens, 72 h, LNCaP prostate cancer cell viability inhibition, 3 days
Procedure: LNCaP cells seeded in 96-well plates were treated with 10 μM GNE-781 or selected bivalent compounds, i.e. P-001, P-002, and P-019, following a 12-point 3-fold serial dilution. Three days after treatment, cell viability was determined using the CellTiter-Glo kit (Promega) following manufacturer's instructions. Cell viability was normalized to the mean values of 3 replicates of untreated cells. Dose-dependent response was analyzed following the least-squares non-linear regression method using the GraphPad Prism 5.0 software.
LNCaP cells were treated with GNE-781 or selected bivalent compounds for 3 days at indicated concentrations following a 3-fold serial dilution.
Cells were seeded at a density of 5000 cells per well in 96-well assay plates and treated with test compounds following a 12-point 3-fold serial dilution. Three days later, cell viability was determined using the CellTiter-Glo assay kit according to the manufacturer's instructions. The dose-response curves were determined and IC50 values were calculated using the GraphPad Prism software following a nonlinear regression (least squares fit) method.

P300 = P300 (Homo sapiens, UniProt Q09472); test: Immunoblotting of P300 protein levels in LNCaP or 22RV1 cells; type: cell-based; set-up: LNCaP or 22RV1 cells that express CBP/P300 proteins were treated with GNE-781 or the bivalent compounds; endogenous in cells; host or cells: LNCaP (clone FGC) or 22RV1 cells; details: read-out: Degradation (10 nM)
Chain of P300 (Q09472 whole entry): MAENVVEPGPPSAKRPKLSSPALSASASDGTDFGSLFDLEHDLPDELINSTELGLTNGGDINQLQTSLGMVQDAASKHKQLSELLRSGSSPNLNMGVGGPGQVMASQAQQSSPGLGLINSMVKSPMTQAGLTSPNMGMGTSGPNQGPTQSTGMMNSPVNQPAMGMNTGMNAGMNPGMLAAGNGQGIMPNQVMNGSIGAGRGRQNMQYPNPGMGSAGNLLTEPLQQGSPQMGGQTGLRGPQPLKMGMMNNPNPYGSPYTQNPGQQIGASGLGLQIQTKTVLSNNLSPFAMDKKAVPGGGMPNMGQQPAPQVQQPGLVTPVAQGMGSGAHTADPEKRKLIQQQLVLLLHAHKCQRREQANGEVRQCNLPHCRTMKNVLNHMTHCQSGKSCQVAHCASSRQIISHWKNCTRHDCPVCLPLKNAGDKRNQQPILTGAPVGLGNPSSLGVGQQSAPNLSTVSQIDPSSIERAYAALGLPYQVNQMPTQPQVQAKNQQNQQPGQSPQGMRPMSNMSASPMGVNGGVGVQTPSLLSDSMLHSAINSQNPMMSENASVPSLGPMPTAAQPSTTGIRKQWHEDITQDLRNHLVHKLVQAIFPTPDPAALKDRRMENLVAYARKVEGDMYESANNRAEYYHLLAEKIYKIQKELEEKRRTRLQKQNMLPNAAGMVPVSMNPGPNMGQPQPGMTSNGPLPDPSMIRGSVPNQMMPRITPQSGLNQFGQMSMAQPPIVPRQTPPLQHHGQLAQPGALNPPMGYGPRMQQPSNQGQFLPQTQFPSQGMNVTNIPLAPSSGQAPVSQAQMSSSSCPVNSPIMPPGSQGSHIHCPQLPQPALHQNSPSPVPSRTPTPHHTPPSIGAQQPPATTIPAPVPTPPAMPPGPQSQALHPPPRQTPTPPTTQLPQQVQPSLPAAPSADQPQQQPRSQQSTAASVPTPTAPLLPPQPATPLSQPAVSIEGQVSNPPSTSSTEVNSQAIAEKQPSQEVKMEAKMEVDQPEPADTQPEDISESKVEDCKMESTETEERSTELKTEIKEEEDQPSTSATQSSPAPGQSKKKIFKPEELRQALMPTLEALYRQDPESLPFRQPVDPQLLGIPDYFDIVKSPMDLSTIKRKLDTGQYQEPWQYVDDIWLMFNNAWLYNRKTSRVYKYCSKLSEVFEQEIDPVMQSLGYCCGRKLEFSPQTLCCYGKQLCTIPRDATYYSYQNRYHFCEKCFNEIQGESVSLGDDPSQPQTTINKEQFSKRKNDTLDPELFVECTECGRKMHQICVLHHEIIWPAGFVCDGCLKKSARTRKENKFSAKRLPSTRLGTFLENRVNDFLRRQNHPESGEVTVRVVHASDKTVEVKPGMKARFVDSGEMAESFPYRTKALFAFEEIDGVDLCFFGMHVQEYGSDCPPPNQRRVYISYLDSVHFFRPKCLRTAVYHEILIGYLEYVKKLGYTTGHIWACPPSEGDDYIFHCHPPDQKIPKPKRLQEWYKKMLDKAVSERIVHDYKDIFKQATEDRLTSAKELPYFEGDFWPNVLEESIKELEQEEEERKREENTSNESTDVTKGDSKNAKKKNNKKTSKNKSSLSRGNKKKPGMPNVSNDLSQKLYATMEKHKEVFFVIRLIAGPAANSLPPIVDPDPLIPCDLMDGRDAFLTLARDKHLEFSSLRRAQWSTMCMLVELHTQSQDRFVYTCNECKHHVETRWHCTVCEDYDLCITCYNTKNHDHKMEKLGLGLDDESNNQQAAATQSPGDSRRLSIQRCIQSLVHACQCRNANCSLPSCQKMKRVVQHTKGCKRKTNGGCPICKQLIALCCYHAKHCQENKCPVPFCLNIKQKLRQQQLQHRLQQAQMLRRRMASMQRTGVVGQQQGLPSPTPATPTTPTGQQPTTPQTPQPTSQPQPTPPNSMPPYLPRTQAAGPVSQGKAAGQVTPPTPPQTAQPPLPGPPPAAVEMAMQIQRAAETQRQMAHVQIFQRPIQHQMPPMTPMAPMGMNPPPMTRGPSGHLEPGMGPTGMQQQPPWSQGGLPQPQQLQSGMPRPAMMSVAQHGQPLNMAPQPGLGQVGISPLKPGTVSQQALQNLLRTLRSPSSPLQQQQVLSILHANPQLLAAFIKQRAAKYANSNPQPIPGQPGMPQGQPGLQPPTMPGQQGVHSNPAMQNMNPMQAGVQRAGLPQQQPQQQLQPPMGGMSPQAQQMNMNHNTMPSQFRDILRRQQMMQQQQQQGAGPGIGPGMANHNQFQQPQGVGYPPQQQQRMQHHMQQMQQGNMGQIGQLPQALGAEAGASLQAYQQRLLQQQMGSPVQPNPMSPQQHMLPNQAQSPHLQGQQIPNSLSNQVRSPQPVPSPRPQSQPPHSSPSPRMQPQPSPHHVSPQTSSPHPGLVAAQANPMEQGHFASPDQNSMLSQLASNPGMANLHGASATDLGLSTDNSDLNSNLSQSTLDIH
Procedure: Specific exemplary bivalent compounds were characterized in LNCaP or 22RV1 cells. LNCaP or 22RV1 cells that express CBP/P300 proteins were treated with GNE-781 or the bivalent compounds disclosed herein (P-001 to P-174) for indicated hours. Cells were collected, lysed and subject to immunoblotting using an antibody specific to P300 or CBP proteins. Tubulin or vinculin was included as the loading control. DMSO was used as the negative control.
Cultured cells or tissue chunks were washed with cold PBS once and lysed in cold RIPA buffer supplemented with protease inhibitors and phosphatase inhibitors (Beyotime Biotechnology). The solutions were then incubated at 4° C. for 30 minutes with gentle agitation to fully lyse cells. Cell lysates were centrifuged at 13,000 rpm for 10 minutes at 4° C. and pellets were discarded. Total protein concentrations in the lysates were determined by BCA assays (Beyotime Biotechnology). Cell lysates were mixed with Laemmli loading buffer to 1× and heated at 99° C. for 5 min. Proteins were resolved on SDS-PAGE and visualized by chemiluminescence. Images were taken by a ChemiDoc MP Imaging system (Bio-Rad). Protein bands were quantitated using the accompanied software provided by Bio-Rad.

[1] = percentage of inhibition of p300 at 10 nM (Table 2)
[2] = percentage of inhibition of p300 at 10 nM (Table 3)

SMILES	IC50 (LNCaP cells; CellTiter-Glo (Table 2)) [µM]	inhibition at 0.01 µM (P300; [1]) [%]	IC50 (LNCaP cells; CellTiter-Glo (Table 3)) [µM]	inhibition at 0.01 µM (P300; [2]) [%]
CNC(=O)N1CCc2c(c(N3CCCc4cc(-c5cnn(C)c5)c(C(F)F)cc43)nn2C2CCN(C(=O)CCCCCCCNc3cccc4c3C(=O)N(C3CCC(=O)NC3=O)C4=O)CC2)C1 (stereo not drawn) [P-036, 3-(7-(difluoromethyl)-6-(1-methyl-1H-pyrazol-4-yl)-3,4-dihydroquinolin-1(2H)-yl)-1-(1-(8-((2-(2,6-dioxopiperidin-3-yl)-1,3-dioxoisoindolin-4-yl)amino)octanoyl)piperidin-4-yl)-N-methyl-1,4,6,7-tetrahydro-5H-pyrazolo[4,3-c]pyridine-5-carboxamide]	0.0008	> 80		
CNC(=O)N1CCc2c(c(N3CCCc4cc(-c5cnn(C)c5)c(C(F)F)cc43)nn2C2CCN(C(=O)CCCNc3ccc4c(c3)C(=O)N(C3CCC(=O)NC3=O)C4=O)CC2)C1 (stereo not drawn) [P-003, 3-(7-(Difluoromethyl)-6-(1-methyl-1H-pyrazol-4-yl)-3,4-dihydroquinolin-1(2H)-yl)-1-(1-(4-((2-(2,6-dioxopiperidin-3-yl)-1,3-dioxoisoindolin-5-yl)amino)butanoyl)piperidin-4-yl)-N-methyl-1,4,6,7-tetrahydro-5H-pyrazolo[4,3-c]pyridine-5-carboxamide]	0.0357	50 to 80		
CC(=O)N1CCc2c(c(N3CCCc4cc(-c5cnn(C)c5)c(C(F)F)cc43)nn2C2CCN(CCCCCCCc3cccc4c3C(=O)N(C3CCC(=O)NC3=O)C4=O)CC2)C1 (stereo not drawn) [P-132, 4-(7-(4-(5-Acetyl-3-(7-(difluoromethyl)-6-(1-methyl-1H-pyrazol-4-yl)-3,4-dihydroquinolin-1(2H)-yl)-4,5,6,7-tetrahydro-1H-pyrazolo[4,3-c]pyridin-1-yl)piperidin-1-yl)heptyl)-2-(2,6-dioxopiperidin-3-yl)isoindoline-1,3-dione]			0.0168	20 to 50
CNC(=O)N1CCc2c(c(N3CCCc4cc(-c5cnn(CC(=O)NCCCCCCCCNc6ccc7c(c6)C(=O)N(C6CCC(=O)NC6=O)C7=O)c5)c(C(F)F)cc43)nn2C2CCOCC2)C1 (stereo not drawn) [P-027, 3-(7-(difluoromethyl)-6-(1-(2-((8-((2-(2,6-dioxopiperidin-3-yl)-1,3-dioxoisoindolin-5-yl)amino)octyl)amino)-2-oxoethyl)-1H-pyrazol-4-yl)-3,4-dihydroquinolin-1(2H)-yl)-N-methyl-1-(tetrahydro-2H-pyran-4-yl)-1,4,6,7-tetrahydro-5H-pyrazolo[4,3-c]pyridine-5-carboxamide]	0.0025	> 80		
CC(=O)N1CCc2c(c(N3CCCc4cc(-c5cnn(C)c5)c(C(F)F)cc43)nn2C2CCN(C(=O)CCCC3CN(c4cccc5c4C(=O)N(C4CCC(=O)NC4=O)C5=O)C3)CC2)C1 (stereo not drawn) [P-146, 4-(3-(4-(4-(5-acetyl-3-(7-(difluoromethyl)-6-(1-methyl-1H-pyrazol-4-yl)-3,4-dihydroquinolin-1(2H)-yl)-4,5,6,7-tetrahydro-1H-pyrazolo[4,3-c]pyridin-1-yl)piperidin-1-yl)-4-oxobutyl)azetidin-1-yl)-2-(2,6-dioxopiperidin-3-yl)isoindoline-1,3-dione]			0.002	> 80
CC(=O)N1CCc2c(c(N3CCCc4cc(-c5cnn(C)c5)c(C(F)F)cc43)nn2C2CCN(CC3CCN(CCCc4cccc5c4C(=O)N(C4CCC(=O)NC4=O)C5=O)CC3)CC2)C1 (stereo not drawn) [P-149, 4-(3-(4-((4-(5-acetyl-3-(7-(difluoromethyl)-6-(1-methyl-1H-pyrazol-4-yl)-3,4-dihydroquinolin-1(2H)-yl)-4,5,6,7-tetrahydro-1H-pyrazolo[4,3-c]pyridin-1-yl)piperidin-1-yl)methyl)piperidin-1-yl)propyl)-2-(2,6-dioxopiperidin-3-yl)isoindoline-1,3-dione]			0.0114	> 80
CNC(=O)N1CCc2c(c(N3CCCc4cc(-c5cnn(C)c5)c(C(F)F)cc43)nn2C2CCN(C(=O)CCCCCNc3cccc4c3C(=O)N(C3CCC(=O)NC3=O)C4)CC2)C1 (stereo not drawn) [P-096, 3-(7-(difluoromethyl)-6-(1-methyl-1H-pyrazol-4-yl)-3,4-dihydroquinolin-1(2H)-yl)-1-(1-(6-((2-(2,6-dioxopiperidin-3-yl)-3-oxoisoindolin-4-yl)amino)hexanoyl)piperidin-4-yl)-N-methyl-1,4,6,7-tetrahydro-5H-pyrazolo[4,3-c]pyridine-5-carboxamide]			0.0266	> 80
CNC(=O)N1CCc2c(c(N3CCCc4cc(-c5cnn(C)c5)c(C(F)F)cc43)nn2C2CCN(C(=O)CCCCCCCC(=O)N[C@H](C(=O)N3C[C@H](O)C[C@H]3C(=O)NCc3ccc(-c4scnc4C)cc3)C(C)(C)C)CC2)C1 [P-061, 3-(7-(Difluoromethyl)-6-(1-methyl-1H-pyrazol-4-yl)-3,4-dihydroquinolin-1(2H)-yl)-1-(1-(9-(((S)-1-((2S,4R)-4-hydroxy-2-((4-(4-methylthiazol-5-yl)benzyl)carbamoyl)pyrrolidin-1-yl)-3,3-dimethyl-1-oxobutan-2-yl)amino)-9-oxononanoyl)piperidin-4-yl)-N-methyl-1,4,6,7-tetrahydro-5H-pyrazolo[4,3-c]pyridine-5-carboxamide]			0.0813	< 20
CC(=O)N1CCc2c(c(N3CCCc4cc(-c5cnn(C)c5)c(C(F)F)cc43)nn2C2CCN(C(=O)CCCCCCNc3cccc4nc(C)n(C5CCC(=O)NC5=O)c(=O)c34)CC2)C1 (stereo not drawn) [P-152, 3-(5-((7-(4-(5-Acetyl-3-(7-(difluoromethyl)-6-(1-methyl-1H-pyrazol-4-yl)-3,4-dihydroquinolin-1(2H)-yl)-4,5,6,7-tetrahydro-1H-pyrazolo[4,3-c]pyridin-1-yl)piperidin-1-yl)-7-oxoheptyl)amino)-2-methyl-4-oxoquinazolin-3(4H)-yl)piperidine-2,6-dione]			0.169	< 20
CNC(=O)N1CCc2c(c(N3CCCc4cc(-c5cnn(C)c5)c(C(F)F)cc43)nn2C2CCN(C(=O)COCCOCCOCCOCCOCC(=O)N[C@H](C(=O)N3C[C@H](O)C[C@H]3C(=O)NCc3ccc(-c4scnc4C)cc3)C(C)(C)C)CC2)C1 [P-071, 3-(7-(Difluoromethyl)-6-(1-methyl-1H-pyrazol-4-yl)-3,4-dihydroquinolin-1(2H)-yl)-1-(1-((S)-19-((2S,4R)-4-hydroxy-2-((4-(4-methylthiazol-5-yl)benzyl)carbamoyl)pyrrolidine-1-carbonyl)-20,20-dimethyl-17-oxo-3,6,9,12,15-pentaoxa-18-azahenicosanoyl)piperidin-4-yl)-N-methyl-1,4,6,7-tetrahydro-5H-pyrazolo[4,3-c]pyridine-5-carboxamide]			0.107	20 to 50
CNC(=O)N1CCc2c(c(N3CCCc4cc(-c5cnn(CC(=O)NCCOCCOCCNc6cccc7c6C(=O)N(C6CCC(=O)NC6=O)C7=O)c5)c(C(F)F)cc43)nn2C2CCOCC2)C1 (stereo not drawn) [P-022, 3-(7-(Difluoromethyl)-6-(1-(2-((2-(2-(2-((2-(2,6-dioxopiperidin-3-yl)-1,3-dioxoisoindolin-4-yl)amino)ethoxy)ethoxy)ethyl)amino)-2-oxoethyl)-1H-pyrazol-4-yl)-3,4-dihydroquinolin-1(2H)-yl)-N-methyl-1-(tetrahydro-2H-pyran-4-yl)-1,4,6,7-tetrahydro-5H-pyrazolo[4,3-c]pyridine-5-carboxamide]	0.389	< 20		
CNC(=O)N1CCc2c(c(N3CCCc4cc(-c5cnn(CC(=O)NCCOCCOCCOCCOCCNc6ccc7c(c6)C(=O)N(C6CCC(=O)NC6=O)C7=O)c5)c(C(F)F)cc43)nn2C2CCOCC2)C1 (stereo not drawn) [P-031, 3-(7-(Difluoromethyl)-6-(1-(17-((2-(2,6-dioxopiperidin-3-yl)-1,3-dioxoisoindolin-5-yl)amino)-2-oxo-6,9,12,15-tetraoxa-3-azaheptadecyl)-1H-pyrazol-4-yl)-3,4-dihydroquinolin-1(2H)-yl)-N-methyl-1-(tetrahydro-2H-pyran-4-yl)-1,4,6,7-tetrahydro-5H-pyrazolo[4,3-c]pyridine-5-carboxamide]	0.566	< 20		
